Measurements as given in patent publication EP0660840B1 (priority 1992, dated 1994).

Key:
plasma ANF = test: Effect on rat plasma ANF concentration during continuous ANF infusion (radioimmunoassay); assay type: in vivo, Male Sprague-Dawley rats; settings: about 10 mg/kg p.o., in 10% ethanol/polyethylene glycol 400; conscious rats infused with ANF 450 ng/kg/min i.v.
Experimental: The effect of the compounds of the invention on rat plasma ANF concentration can be determined as follows:
Male Sprague-Dawley rats (275-390 g) are anesthetized with ketamine (150 mg/kg)/acepromazine (10%) and instrumented with catheters in the femoral artery and vein to obtain blood samples and infuse ANF, respectively. The rats are tethered with a swivel system and are allowed to recover for 24 hours before being studied in the conscious, unrestrained state.
In this assay, plasma ANF levels are determined in the presence and absence of NEP inhibition. On the day of study, all rats are infused continuously with ANF at 450 ng/kg/min. i.v. for the entire 5 hours of the experiment. Sixty minutes after beginning the infusion, blood samples for baseline ANF measurements are obtained (time 0) and the rats are then randomly divided into groups treated with the test compound or vehicle. Additional blood samples are taken 30, 60, 120, 180 and 240 minutes after administration of the test compound.
Plasma concentrations are determined by a specific radioimmunoassay. […] The supernatant is decanted and the pellets counted in a gamma counter. […] Plasma ANF levels are expressed as a percent of those measured in vehicle-treated animals which received ANF alone (450 ng/kg/min i.v.).

[1] = tested on: DOCA-salt hypertensive rats; test: Antihypertensive effect in DOCA-salt hypertensive rats; assay type: in vivo; settings: 10 mg/Kg p.o., in PEG 400; DOCA-salt hypertensive rat model
Experimental: The antihypertensive effect can be determined in desoxycorticosterone acetate (DOCA)-salt hypertensive rats.
DOCA-salt hypertensive rats (280-380 g) are prepared by the standard method. Rats underwent a unilateral nephrectomy and one week later are implanted with silastic pellets containing 100 mg/kg of DOCA. The rats are maintained on 1% NaCl/0.2% KCI drinking water for three to five weeks until sustained hypertension is established. The antihypertensive activity is evaluated at this time.
Two days before an experiment, the rats are anesthetized with methoxyflurane and instrumented with catheters in the femoral artery to measure arterial blood pressure. Forty-eight hours later, baseline arterial pressure and heart rate are recorded during a 1 hour period. The test compound or vehicle is then administered and the same cardiovascular parameters are monitored for an additional 5 hours.

O=P(CN[C@@H](Cc1ccc(-c2ccccc2)cc1)c1nnn[nH]1)(Oc1ccccc1)Oc1ccccc1 [Example 3, (S)-[2-Biphenyl-4-yl-1-(1H-tetrazol-5-yl)-ethylamino]-methylphosphonic acid diphenyl ester] was tested, and the “plasma ANF levels” value (plasma ANF) was “significant increases” and the blood pressure [1] was “significant reduction”.
